Experiment [1] addresses T1, human androgen receptor (Homo sapiens, UniProt P10275).
T1 construct: expressed in transfected cells; host or cells: HeLa cells
T1 sequence (P10275 1-920): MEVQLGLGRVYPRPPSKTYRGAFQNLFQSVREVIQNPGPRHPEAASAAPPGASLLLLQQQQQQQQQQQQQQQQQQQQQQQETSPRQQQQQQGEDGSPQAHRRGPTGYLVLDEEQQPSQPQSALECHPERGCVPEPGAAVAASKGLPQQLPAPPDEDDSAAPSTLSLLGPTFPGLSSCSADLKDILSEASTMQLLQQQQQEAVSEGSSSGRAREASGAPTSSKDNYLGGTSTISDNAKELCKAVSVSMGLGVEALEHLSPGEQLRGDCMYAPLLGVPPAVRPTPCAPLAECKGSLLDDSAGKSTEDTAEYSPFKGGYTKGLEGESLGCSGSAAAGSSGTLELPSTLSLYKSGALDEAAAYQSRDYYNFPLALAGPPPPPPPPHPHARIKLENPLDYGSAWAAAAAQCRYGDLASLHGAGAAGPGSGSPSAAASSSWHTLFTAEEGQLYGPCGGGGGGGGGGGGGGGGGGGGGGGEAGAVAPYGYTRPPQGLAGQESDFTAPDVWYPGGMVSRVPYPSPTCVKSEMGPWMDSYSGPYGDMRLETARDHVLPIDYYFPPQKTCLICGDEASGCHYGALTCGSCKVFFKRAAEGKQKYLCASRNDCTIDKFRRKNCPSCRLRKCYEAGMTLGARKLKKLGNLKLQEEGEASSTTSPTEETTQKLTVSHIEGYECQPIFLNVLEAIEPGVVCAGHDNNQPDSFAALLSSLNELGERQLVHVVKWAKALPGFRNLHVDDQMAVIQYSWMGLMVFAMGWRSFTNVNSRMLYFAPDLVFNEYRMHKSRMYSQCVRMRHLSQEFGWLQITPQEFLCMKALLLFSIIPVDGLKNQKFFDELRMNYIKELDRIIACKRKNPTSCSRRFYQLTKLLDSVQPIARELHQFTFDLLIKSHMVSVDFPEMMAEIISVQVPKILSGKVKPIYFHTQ
The experiment in a line: Androgen receptor reporter gene assay, antagonist action against DHT (MMTV-Luc, pSG5/hAR and Renilla Luc vectors transfected into HeLa cells, dual-luciferase). It is filed as cell-based. On the procedure:
The expression "acting as antagonist" means that in the following androgen receptor gene assay, the transcriptional activity value of 0.1 nmol/L of dihydrotestosterone (DHT) is inhibited to 0 - 50% at any concentration of 0.1 nmol/L - 10 µmol/L:
Twenty-four hours before transfection, 1.0 x 10^5 HeLa cells are cultured in phenol red free DMEM/5% DCC-FBS on 12-well microplates. Five hundred nanograms/well of MMTV-Luc vector, 100 ng/well of pSG5/hAR and 5 ng/well of Renilla Luc vector are transfected into the HeLa cells. The transfection is performed in a liquid culture of the phenol red free DMEM using […] of lipofectoamine. Nine hours after the transfection, the liquid culture is replaced by phenol red free DMEM/3% DCC-FBS containing 0.1 nmol/L of DHT and […] of a compound of the invention which is represented by the general formula (I) or the substance of the invention which acts as antagonist against but not as agonist for the androgen receptor. The transcriptional activity value is measured 48 hours after the replacement of the liquid culture. Transcriptional activity is measured with a dual-luciferase reporter assay system. The transcriptional activity value is defined as the value for firefly luciferase divided by the value for sea pansy luciferase. […] 270, pp. 19998-20003, 1995.
(§1) Twenty-four hours before transfection, 1.0 x 10^5 HeLa cells were cultured in phenol red free DMEM/5% DCC-FBS on 12-well microplates. Five hundred nanograms/well of MMTV-Luc vector, 100 ng/well of pSG5/hAR and 5 ng/well of Renilla Luc vector were transfected into the HeLa cells. The transfection was performed in a liquid culture of the phenol red free DMEM using […] of lipofectoamine. […] The transcriptional activity value was measured 48 hours after the replacement of the liquid culture. Transcriptional activity was measured with a dual-luciferase reporter assay system. The transcriptional activity value was calculated as the value for firefly luciferase divided by the value for sea pansy luciferase.
The compound was added at concentrations of 1, 10, 100, 1000 and 10000 nmol/L and at each of these concentrations, measurement was done in the presence of DHT (0.1 nmol/L). Antagonist activity = Transcriptional activity when the compound was added/Transcriptional activity when the compound was not added x 100 [formula]
(In general: A reporter such as luciferase makes a cellular process visible.)

In experiment [2] the target is T1, human androgen receptor. The experiment in a line: Androgen receptor reporter gene assay, agonist action (MMTV-Luc, pSG5-hAR and Renilla Luc vectors transfected into HeLa cells, dual-luciferase). The settings on record: for FI5 value: concentration showing a transcriptional activity five times that without compound, tested at 1, 10, 100, 1000 and 10000 nmol/L. The format is cell-based.
Text: Speaking of the substance of the invention which acts as antagonist against but not as agonist for the androgen receptor, the expression "not acting as agonist" means that in the following androgen receptor gene assay, the transcriptional activity value of the substance at any concentration of 0.1 nmol/L - 10 µmol/L is from one to five times the transcriptional activity value for no addition of the substance which is taken as unity:
Twenty-four hours before transfection, 1.0 x 10^5 HeLa cells (purchased from Dainippon Pharmaceutical Co., Ltd.) are cultured in phenol red free Dulbecco's modified Eagle medium (DMEM) containing 5% of charcoal-treated FBS (DCC-FBS) in 12-well microplates. Five hundred nanograms/well of MMTV-Luc vector (the reporter plasmid of luciferase having mouse tumor long terminal repeats containing the androgen response element: GM-CAT vector (A.T.C.C. No. 67282) purchased from A.T.C.C. provided that the chloramphenicol acetyl transferase gene was replaced by the firefly luciferase gene), 100 ng/well of pSG5-hAR (the expression vector of the human androgen receptor which harbors the androgen receptor gene under the control of SV40 promoter) and 5 ng/well of Renilla Luc vector (a vector for internal standard incorporating the sea pansy luciferase gene) are transfected into the HeLa cells. The transfection is performed in a liquid culture of the phenol red free DMEM using […] of lipofectoamine (GibcoBRL). Nine hours after the transfection, the liquid culture is replaced by phenol red free DMEM/3% DCC-FBS containing 10 µmol/L of a compound of the invention which is represented by the general formula (I) or the substance of the invention which acts as antagonist against but not as agonist for the androgen receptor. The transcriptional activity value is measured 48 hours after the replacement of the liquid culture. Transcriptional activity is measured with a dual-luciferase reporter assay system (Promega). The transcriptional activity value is defined as the value for firefly luciferase divided by the value for sea pansy luciferase. […] 270, pp. 19998-20003, 1995.
as §1, with “pSG5-hAR” for “pSG5/hAR”
The compound was added at concentrations of 1, 10, 100, 1000 and 10000 nmol/L. Agonist activity = Transcriptional activity when the compound was added/Transcriptional activity when the compound was not added [formula]

Setting [3] is: concentration giving 50% decrease in the transcriptional activity of DHT 0.1 nmol/L, tested at 1, 10, 100, 1000 and 10000 nmol/L, read-out: IC50 value.

From patent EP1219631A1, “ANTIANDROGEN AGENTS” (CHUGAI SEIYAKU KABUSHIKI KAISHA, priority 1999, dated 2001) come the findings set out here.

Where two headings read alike, the source gives them in different places.

One may read the IC50 as the concentration that gives 50% inhibition. Take `C[C@]12CCC(=O)C[C@@H]1C[C@@H](CCCCCCCC(=O)NCCO)[C@@H]1[C@@H]2CC[C@]2(C)[C@@H](O)CC[C@@H]12` (stereo in doubt) [Example 64, 17β-hydroxy-7α-[7-{N-(2-hydroxyethyl]-aminocarbonyl}heptyl]-5α-androstan-3-one]: on human androgen receptor [1] (setting [3]), the IC50 is 809 nM.

Consider `CNC(=O)CCCOc1cccc(CCC[C@@H]2C[C@H]3CC(=O)CC[C@]3(C)[C@H]3CC[C@]4(C)[C@@H](O)CC[C@H]4[C@H]23)c1` (stereo in doubt) [Example 164, 17β-hydroxy-7α-[3-[3-{3-(N-methylaminocarbonyl)propoxy}phenyl]propyl]-5α-androstan-3-one], for which the FI5 value result on human androgen receptor [2] is on record as “ND (even when the compound was added at a concentration of 10000 nM, the transcriptional activity of the compound-treated group was less than 5 times the transcriptional activity of the control group, making it impossible to compute the FI5 value)”. On human androgen receptor [1], it took 291 nM to reach half-maximal inhibition (IC50).

Consider `CCCCN(C)C(=O)CCCCCCCCCC[C@@H]1CC2=CC(=O)CC[C@]2(C)[C@H]2CC[C@]3(C)[C@@H](O)CC[C@H]3[C@H]12` [EM-101, reference compound], for which the IC50 on human androgen receptor [1] (setting [3]) was found to be 2620 nM.

At human androgen receptor [1], `CN(C)C(=O)CCCCCCC[C@@H]1C[C@H]2CC(=O)CC[C@]2(C)[C@H]2CC[C@]3(C)[C@@H](O)CC[C@H]3[C@H]12` [Example 9, 17β-hydroxy-7α-{7-(N,N-dimethylaminocarbonyl)-heptyl}-5α-androstan-3-one] gave an IC50 of 451 nM.

Turning to `CCNC(=O)CCCCCCC[C@@H]1C[C@H]2CC(=O)CC[C@]2(C)[C@H]2CC[C@]3(C)[C@@H](O)CC[C@H]3[C@H]12` [Example 10], the IC50 on human androgen receptor [1] (setting [3]) was determined as 937 nM.

For the molecule `CC(C)NC(=O)CCCCCCCC1CC2CC(=O)CCC2(C)C2CCC3(C)C(O)CCC3C12` (stereo not shown) [Example 14], at human androgen receptor [2], the FI5 value result is “ND (even when the compound was added at a concentration of 10000 nM, the transcriptional activity of the compound-treated group was less than 5 times the transcriptional activity of the control group, making it impossible to compute the FI5 value)”. The molecule also showed an IC50 on human androgen receptor [1] of 1980 nM.

For `CCCCN(C)C(=O)CCCCCCCC1CC2CC(=O)CCC2(C)C2CCC3(C)C(O)CCC3C12` (stereo not shown) [Example 18], the IC50 against human androgen receptor [1] turned out to be 342 nM.

At human androgen receptor [1], `CCN(CC)C(=O)CCCCCCCC1CC2CC(=O)CCC2(C)C2CCC3(C)C(O)CCC3C12` (stereo not shown) [Example 19] returned an IC50 of 295 nM.

`CC12CCC3C(C(CCCCCCCC(=O)NCc4ccco4)CC4CC(=O)CCC43C)C1CCC2O` (stereo not shown) [Example 23]: the IC50 at human androgen receptor [1] (setting [3]) was 1300 nM.

Consider `CNC(=O)CCCCCCCC1CC2CC(=O)CCC2(C)C2CCC3(C)C(O)CCC3C12` (stereo not shown) [Example 24], for which the IC50 against human androgen receptor [1] was determined as 477 nM.

As to `CCN(C)C(=O)CCCCCCCC1CC2CC(=O)CCC2(C)C2CCC3(C)C(O)CCC3C12` (stereo not shown) [Example 25], the IC50 on human androgen receptor [1] (setting [3]) worked out at 415 nM.

As for `CCCN(C)C(=O)CCCCCCCC1CC2CC(=O)CCC2(C)C2CCC3(C)C(O)CCC3C12` (stereo not shown) [Example 26], the concentration for half-maximal inhibition (IC50) on human androgen receptor [1] (setting [3]) was determined as 1130 nM.

As to `CC(C)N(C)C(=O)CCCCCCCC1CC2CC(=O)CCC2(C)C2CCC3(C)C(O)CCC3C12` (stereo not shown) [Example 27], the 50% inhibitory concentration (IC50) at human androgen receptor [1] was determined as 421 nM.

For the molecule `CC12CCC3C(C(CCCCCCCC(=O)N4CCCC4)CC4CC(=O)CCC43C)C1CCC2O` (stereo not shown) [Example 29], on human androgen receptor [2], the FI5 value result is recorded as “ND (even when the compound was added at a concentration of 10000 nM, the transcriptional activity of the compound-treated group was less than 5 times the transcriptional activity of the control group, making it impossible to compute the FI5 value)”. For the same molecule, the IC50 on human androgen receptor [1] worked out at 304 nM.

For the molecule `CN(C)C(=O)CCCCCCCCCC1CC2CC(=O)CCC2(C)C2CCC3(C)C(O)CCC3C12` (stereo not shown) [Example 42], the IC50 at human androgen receptor [1] (setting [3]) came to 342 nM.

Consider `CCN(CC)C(=O)CCCCCCCCCC1CC2CC(=O)CCC2(C)C2CCC3(C)C(O)CCC3C12` (stereo not shown) [Example 43], for which, at human androgen receptor [1] (setting [3]), the IC50 was determined as 1300 nM.

Regarding `CCCCN(C)C(=O)CCCCCCCCCC1CC2CC(=O)CCC2(C)C2CCC3(C)C(O)CCC3C12` (stereo not shown) [Example 46], the half-maximal inhibitory concentration (IC50) on human androgen receptor [1] (setting [3]) is 1750 nM.

Regarding `CCCN(C)C(=O)CCCCCCCCCC1CC2CC(=O)CCC2(C)C2CCC3(C)C(O)CCC3C12` (stereo not shown) [Example 50], the IC50 at human androgen receptor [1] (setting [3]) amounted to 737 nM.

For the molecule `CC12CCC3C(C(CCCCCCCCCC(=O)N4CCOCC4)CC4CC(=O)CCC43C)C1CCC2O` (stereo not shown) [Example 51], the IC50 on human androgen receptor [1] (setting [3]) worked out at 474 nM.

For the molecule `CCCNC(=O)CCCCCCCC1CC2CC(=O)CCC2(C)C2CCC3(C)C(O)CCC3C12` (stereo not shown) [Example 65], the IC50 on human androgen receptor [1] (setting [3]) turned out to be 1830 nM.

Consider `CC12CCC3C(C(CCCCCCCC(=O)NCc4ccccc4)CC4CC(=O)CCC43C)C1CCC2O` (stereo not shown) [Example 73], for which the IC50 on human androgen receptor [1] (setting [3]) worked out at 1100 nM.

`CCN(CC)C(=O)CCCCCCCCCC1CC2(C)C(O)CCC2C2CCC3CC(=O)CCC3(C)C12` (stereo not shown) [Example 96]: at human androgen receptor [1] (setting [3]), the IC50 was 1600 nM.

On to `CC12CCC3C(C(CCCc4cccc(OCCCCC(=O)N5CCCC5)c4)CC4CC(=O)CCC43C)C1CCC2O` (stereo not shown) [Example 167], for which, on human androgen receptor [1] (setting [3]), the IC50 was 475 nM.

For the molecule `CN(C)C(=O)CCCOc1cccc(CCCC2CC3CC(=O)CCC3(C)C3CCC4(C)C(O)CCC4C23)c1` (stereo not shown) [Example 168], on human androgen receptor [1] (setting [3]), the IC50 turned out to be 540 nM.

As to bicaltamide, at human androgen receptor [2] (Example 1, HeLa cells, 48 hours), the “transcriptional activity value relative to the case of non-addition” value is recorded as “more than five times”. Further, the acting as agonist result at human androgen receptor [2] (at a concentration of 10 µmol/L) was “act as agonist”. Also, the FI5 value at human androgen receptor [2] amounted to 767 nM. Further, on human androgen receptor [2] (summary of the results of Example 180), the “agonist action for the androgen receptor mediated transcriptional activity” value is reported as “exhibit agonist action”.
